SMILES	melting point
CCCCn1ncc(/C=C(\Cc2cc3c(cc2OC)OCO3)C(=O)O)c1-c1ccc(OC)cc1OCc1ccccc1C(=O)O [Example 1, (E)-alpha-[[1-n-Butyl-5-[2-[(2-carboxyphenyl)methoxy]-4-methoxyphenyl]-1H-pyrazol-4-yl]methylene]-6-methoxy-1,3-benzodioxole-5-propanoic Acid]	213 to 214 °C
CCCCn1cc(/C=C(\Cc2cc3c(cc2OC)OCO3)C(=O)O)c(-c2ccc(OC)cc2OCc2ccccc2C(=O)O)n1 [Example 2, (E)-alpha-[[1-n-Butyl-3-[2-[(2-carboxyphenyl)methoxy]-4-methoxyphenyl]-1H-pyrazol-4-yl]methylene]-6-methoxy-1,3-benzodioxole-5-propanoic Acid]	226 to 227 °C
